According to PMC6920806, “Synthesis of β-D-galactopyranoside-Presenting Glycoclusters, Investigation of Their Interactions with Pseudomonas aeruginosa Lectin A (PA-IL) and Evaluation of Their Anti-Adhesion Potential” (Biomolecules, 2019):
Converted amounts (≈) assume the structure as drawn.

Key:
[1] = test system: adhesion of P. aeruginosa (ST 1763) to epithelial bronchial cells (CuFi-1); set-up: method as in PMID 31216664; conditions: previous study; cited from earlier work
lectin PA-IL [2] = biological target: T1, lectin PA-IL (Pseudomonas aeruginosa, UniProt Q05097); experiment: Hemagglutination inhibition assay (HIA) with microscope detection; type: biochemical
T1 construct: made in house; host or cells: Escherichia coli BL21(DE3)
T1 sequence (Q05097 2-122): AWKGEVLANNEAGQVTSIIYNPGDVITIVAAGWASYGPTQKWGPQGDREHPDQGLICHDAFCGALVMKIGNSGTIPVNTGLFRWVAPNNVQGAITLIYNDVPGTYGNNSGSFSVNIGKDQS
Experimental: PA-IL was dissolved in the buffer with calcium ions suitable for the activity of the lectin (20 mM Tris/HCl, 150 mM NaCl, 5 mM CaCl2, pH = 7.5) to the concentration 0.25 mg mL^−1. Lectin was mixed with carbohydrate inhibitors serially diluted in the buffer in a 5 µL:5 µL ratio. Therefore, the final (working) concentration of the lectin was 0.125 mg mL^−1. A total of 10 µL of 20% papain-treated, azid-stabilized red blood cells B^+ in the buffer was then added, and the mixture was thoroughly mixed and incubated for 5 min at room temperature. After incubation, the mixture was again mixed, transferred to a microscope slide, and examined. The examination was conducted using the Levenhuk D2L NG Digital Microscope (Levenhuk, Tampa, FL, USA). Images were obtained with a Levenhuk D2L digital camera (Levenhuk, Tampa, FL, USA) using the software ToupView for Windows (Version 3.7, Levenhuk, Tampa, FL, USA). The positive (experiment without inhibitor) and negative control (experiment without lectin) were prepared and processed in the same way using the appropriate volume of dissolving buffer instead of the omitted components. The minimal inhibitory concentration (MIC) of the inhibitor able to inhibit hemagglutination was determined and compared with the standard (D-galactose) and the potency of the inhibitor was calculated (MIC of the standard/MIC of the inhibitor).

lectin PA-IL [3] = biological target: T1, lectin PA-IL; experiment: Analytical ultracentrifugation (sedimentation velocity), cross-linking of lectin; conditions: protein:ligand ratios 1:0.1, 1:1, 1:10
Experimental: Analytical ultracentrifugation experiments were performed using ProteomeLab XL-I analytical ultracentrifuge (Beckman Coulter, Indianapolis, IN, USA) equipped with an An-60 Ti rotor. Sedimentation velocity experiments were conducted in titanium double-sector centerpiece cells (Nanolytics Instruments, Potsdam, Germany) loaded with 390 µL of both protein sample and reference solution (PBS buffer, pH = 7.5). PA-IL without the added ligand and PA-IL samples pre-incubated with different concentrations of galactosylated dendrimers 4, 7, 10 and 13 and D-galactose (protein:ligand ratios of 1:0.1, 1:1 and 1:10) were analyzed by the sedimentation velocity experiment. All the measurements were performed in PBS buffer with 22 µM PA-IL. Data were collected using absorbance optics at 25 °C at a rotor speed of 48,000 rpm. Scans were collected at 280 nm (or alternatively at 294 nm to decrease the absorbance signal of the samples containing excess of the UV-absorbing ligands 4 and 10) at 5-min intervals and 0.003 cm spatial resolution in continuous scan mode. The partial specific volume of the protein and the solvent density and viscosity were calculated from the amino acid sequence and buffer composition, respectively, using the software Sednterp (http://bitcwiki.sr.unh.edu). The data were analyzed with the continuous c(s) distribution model implemented in the program Sedfit 15.01b. For the regularization procedure, a confidence level of 0.95 was used. The plots of c(s) distributions were created in GUSSI 1.3.1 [28].

lectin PA-IL [4] = biological target: T1, lectin PA-IL; experiment: Isothermal titration microcalorimetry (ITC); type: binding
Experimental: All the experiments were performed on MicroCal iTC200 (Malvern Instruments, Malvern, UK) at 25 °C. The freeze-dried lectin PA-IL was dissolved in 0.1 M Tris/HCl, 500 μM CaCl2, pH = 7.5, and equilibrated at room temperature for 1 h before ITC measurements. Multivalent galactosylated compounds 4, 7, 10 and 13 were diluted in the same buffer and used in 0.25–0.5 mM concentrations. Aliquots of 2 µL of the compounds were added automatically to the 0.078 mM or 0.088 mM PA-IL in the calorimeter cell. Blank experiments (injections of compounds to the buffer) were performed and heat responses were subtracted. Integrated heat effects were analyzed by global fitting of data obtained from three independent titrations for each tested compound by non-linear regression using a single site-binding model (Microcal Origin 7, Malvern Instruments, Malvern, UK). Fitted data yielded the association constant (Ka) and the enthalpy of binding (ΔH). Other thermodynamic parameters, i.e., changes in free energy (ΔG) and entropy (ΔS), were calculated from the following equation: ΔG = ΔH − TΔS = −RT ln Ka, where T is the absolute temperature and R = 8.314 J mol^−1 K^−1. The monosaccharide D-galactose was used as a control; 4 mM D-galactose was added to the 0.147 mM PA-IL in the calorimeter cell. Two titration experiments were performed and the heat responses were processed and evaluated as mentioned above.

lectin PA-IL [5] = biological target: T1, lectin PA-IL; experiment: SPR inhibition of PA-IL binding to immobilized D-galactosides
Experimental: Surface plasmon resonance (SPR) experiments were performed on a BIAcore T200 instrument (GE Healthcare, Chicago, IL, USA) at 25 °C, using HBST running buffer (10 mM HEPES, 150 mM NaCl, 0.5 mM CaCl2, 0.05% Tween 20, pH = 7). A CM5 sensor chip (GE Healthcare, Chicago, IL, USA) covered with a carboxymethylated dextran matrix was used for ligand immobilization. The sensor chip surface was activated with N-ethyl-N-(3-dimethylaminopropyl)carbodiimide/N-hydroxysuccinimide solution and then coated with streptavidin (Sigma-Aldrich, St. Louis, MO, USA) in 10 mM acetate pH = 5.0 according to the manufacturer’s standard protocol to a final response of 7000 RU. Unreacted groups were blocked with 1 M ethanolamine-HCl, pH = 8.5. 0.5 mM biotinylated carbohydrate (1:1 mixture of biotin-α-D-galactoside and biotin-β-D-galactoside for measuring channel and α-L-fucoside for blank channel, all Lectinity, Moskow, Russia) was injected into a particular channel at a flow rate of 5 μL min^−1.
In the experimental setup, SPR inhibition measurements were carried out simultaneously on both measuring and blank channels at a flow rate of 5 µL min^−1. […] The response of the blank channel was subtracted from the response of lectin bound to the galactose-modified surface at equilibrium and plotted against the concentration of inhibitor in order to determine IC50 (concentration of inhibitor resulting in 50% inhibition of binding). As IC50 is not a constant and depends on the experimental set-up, a parameter called potency was used for characterization. The potency of a tested inhibitor is the ratio of IC50 of a chosen standard inhibitor (in this case, D-galactose) and the inhibitor in question. Pure lectin PA-IL was used as a control (0% inhibition).

| Compound | most effective concentration [1] | Potency (MIC of standard/MIC of inhibitor) (lectin PA-IL [2]; HIA, standard D-galactose) | β (Potency/Valency) (lectin PA-IL [2]; HIA, standard D-galactose) | MIC (minimal inhibitory concentration) (lectin PA-IL [2]; inhibition of hemagglutination caused by PA-IL (0.125 mg mL−1), papain-treated red blood cells B+) | cross-linking of PA-IL (formation of the 6.4 S particle) (lectin PA-IL [3]) | Kd (lectin PA-IL [4]) | ΔH (lectin PA-IL [4]; ITC, 25 °C) | −T ΔS (lectin PA-IL [4]; ITC, 25 °C, calculated from ΔG = ΔH − TΔS) | ΔG (lectin PA-IL [4]; ITC, 25 °C, calculated from −RT ln Ka) | n (stoichiometry) (lectin PA-IL [4]; ITC, 25 °C, single site-binding model) | IC50 (lectin PA-IL [5]) | Potency (IC50 of standard/IC50 of inhibitor) (lectin PA-IL [5]; SPR, standard D-galactose) | β (Potency/Valency) (lectin PA-IL [5]; SPR, standard D-galactose) |
| --- | --- | --- | --- | --- | --- | --- | --- | --- | --- | --- | --- | --- | --- |
| C[C@@H]1O[C@@H](OCc2cn(CCOCCOCCOCCn3cc(COCC(COCc4cn(CCOCCOCCOCCn5cc(CO[C@@H]6O[C@@H](C)[C@@H](O)[C@@H](O)[C@@H]6O)nn5)nn4)(COCc4cn(CCOCCOCCOCCn5cc(CO[C@@H]6O[C@@H](C)[C@@H](O)[C@@H](O)[C@@H]6O)nn5)nn4)COCc4cn(CCOCCOCCOCCn5cc(CO[C@@H]6O[C@@H](C)[C@@H](O)[C@@H](O)[C@@H]6O)nn5)nn4)nn3)nn2)[C@@H](O)[C@H](O)[C@@H]1O [Compound 14] | 250 µM |  |  |  |  |  |  |  |  |  |  |  |  |
| O=C[C@H](O)[C@@H](O)[C@@H](O)[C@H](O)CO [D-galactose, reference compound] |  | 1 | 1 | 6.25 mM (≈ 1130 µg/mL) | negligible effect | 147 µM | -9.03 ± 0.698 kcal/mol | 3.8 ± 0.507 kcal/mol | -5.23 ± 0.294 kcal/mol | 0.78 ± 0.05 | 187 µM | 1 | 1 |
